How the values were obtained:
Assay type in all cases: functional
Conditions in all cases: P388, ip, route intraperitoneal
Mus musculus [1] = experiment: Evaluated for % increase in median survival rate against P388 Lymphocytic Leukemia at a dose of 200 mg/kg administered intraperitoneally
Mus musculus [2] = experiment: Evaluated for % increase in median survival rate against P388 Lymphocytic Leukemia at a dose of 100 mg/kg administered intraperitoneally
Mus musculus [3] = experiment: Evaluated for % increase in median survival rate against P388 Lymphocytic Leukemia at a dose of 50 mg/kg administered intraperitoneally
Mus musculus [4] = experiment: Evaluated for % increase in median survival rate against P388 Lymphocytic Leukemia at a dose of 400 mg/kg administered intraperitoneally

CCCCCCC(=O)OCCl [HEPTANOIC ACID CHLOROMETHYL ESTER]
ILS at 200 mg/kg (Mus musculus [1]): 127% | ILS at 100 mg/kg (Mus musculus [2]): 120% | ILS at 50 mg/kg (Mus musculus [3]): 107% | ILS at 400 mg/kg (Mus musculus [4]): 109%

Reference: ChEMBL document CHEMBL1121440, “Soft drugs. 2. Soft alkylating compounds as potential antitumor agents” (1980)
